Measured values as given in US12171766B2, “Methods of treating patients suffering from brain injury and methods of increasing the value of the extended Glasgow Outcome Scale of patients suffering from brain injury” (VERINOS OPERATIONS GMBH, priority 2021, dated 2024).

Test system: adult intensive care patients with acute moderate and severe TBI
Experiment: NOSTRA phase III trial: Extended Glasgow Outcome Scale (eGOS) at 3 and 6 months, Ronopterin 17 mg/kg infused over 48 hours vs placebo, incl. post hoc subgroup analyses
Assay type: in vivo, human
Protocol: A phase III trial of Ronopterin infusion to adult TBI patients (18-60 years) with acute moderate and severe TBI was performed. Based on the results of the earlier phase II study, the NOSTRA (NO Synthase in TRAumatic Brain Injury) phase III trial was designed to detect clinically relevant differences in clinical outcome (Extended Glasgow Outcome Score at 6 months after injury) as primary endpoint.
NOSTRA III was a multicentre, prospective, two parallel groups, blinded, placebo-controlled, randomised phase III trial of Ronopterin infusion for 48 hours in adult intensive care patients with acute moderate and severe TBI. […] The detailed study protocol is described by Tegtmeier et al. Efficacy of Ronopterin (VAS203) in Patients with Moderate and Severe Traumatic Brain Injury (NOSTRA phase III trial): study protocol of a confirmatory, placebo-controlled, randomised, double blind, multi-centre study. Trials. 2020. A total of 224 evaluable patients with moderate and severe TBI were enrolled in 32 centres in Austria, France, Germany, Spain, and United Kingdom. The trial started on 24 Aug. 2016 with last-patient last-visit on 17 Jun. 2020.
Patients between 18 and 60 years of age with Glasgow Coma Score≥3 requiring intracranial pressure (ICP) monitoring were enrolled. Other inclusion criteria were TBI within the last 18 hours but at least 6 hours after the injury, which were expected to survive more than 24 hours after admission.
Ronopterin and placebo (0.9% saline) were infused continuously via central venous catheter at a constant rate. A total dose of 17 mg/kg body weight of Ronopterin was infused for 48 hours (daily dose 8.5 mg/kg body weight).
The primary outcome was the difference between eGOS in Ronopterin and placebo treated patients at 6 months after trauma. The eGOS was determined by a face to face meeting by trained assessors.
The null-hypothesis of no shift across the 8 ordered categories of eGOS for the two treatment groups was tested after six months based on a proportional odds model stratified by age (18-39 years and 40-60 years). The treatment effect was estimated using ordinal Logistic regression model as the (proportional) odds ratio of Ronopterin versus Placebo. Treatment and age (18-39 years and 40-60 years) were included in the model. The proportional odds assumption was tested using a Chi-Square Score Test.
As secondary efficacy endpoint the eGOS at 3 months was analysed using the same statistics.
The main objective of the post hoc analyses was to estimate the effect size of VAS203 compared with placebo for the primary endpoint eGOS-I in the subgroups time to infusion ≤12 hours and >12 hours. Supportive analyses were conducted by age group (<40 years, ≥40 years) because age group was used as a stratification factor in the study. Comparability between treatment groups regarding demographics as well as severity and location of disease was investigated using similar methods as in the main CSR.
The proportions of patients per eGOS-I level at 3 months and at 6 months were calculated. For the change in eGOS-I over time, the proportion of patients with changes from 3 to 6 months were calculated by eGOS-I level, and in addition categorised as decreased (i.e. any decrease in eGOS-I level from 3 to 6 months), unchanged (i.e. no change in eGOS-I level from 3 to 6 months), and increased (i.e. any increase in eGOS-I level from 3 to 6 months).
Ordinal logistic regression was used for the analysis of eGOS-I at 3 months and at 6 months, including treatment group and age group (<40 years, ≥40 years) as factors in the model. Estimated odds ratios for the comparison of the VAS203 and placebo groups of >1 mean that eGOS-I was higher in the VAS203 group than in the placebo group across the 8 levels, whereas odds ratios of <1 mean that eGOS-I was lower in the VAS203 group than in the placebo group. Odds ratios together with their 95% CIs were used to estimate and assess the size of the treatment effect of VAS203 compared to placebo. […]

[1] = female patients, ≤12 hours (FIGS. 14A-D)

CC(O)C(O)C1CNc2nc(N)nc(N)c2N1 [Ronopterin, 4-Amino-(6R,S)-5,6,7,8-tetrahydro-L-biopterin]
number of patients with increase in eGOS by at least 2 levels from 3 to 6 months (age 40-60 years, all times to infusion (FIG. 8C)): 10
more patients with higher increase in eGOS over time vs placebo: significance (age 40-60 years, all times to infusion (FIG. 8D)): not (statistically) significant
increase in eGOS levels from 3 to 6 months (age 40-60 years, ≤12 hours (FIG. 9A)): up to 4 levels
number of patients with increase in eGOS by at least 2 levels from 3 to 6 months (age 40-60 years, ≤12 hours (FIG. 9C)): 5
Odds ratio for increases in eGOS levels from 3 to 6 months (age group 18-39 (<40), early infusion (≤12 hours), vs placebo): 4.398
patients with an increase in their eGOS levels (eGOS responders) vs placebo (age ≥40 years, ≤12 hours (FIGS. 9A-D)): trend to more patients with an increase in their eGOS levels
increase in eGOS levels from 3 to 6 months (all ages, >12 hours (FIG. 5E)): up to 4 levels
number of patients with increase in eGOS by at least 2 levels from 3 to 6 months (all ages, early infusion ≤12 hours (FIG. 5C)): 9
number of patients with increase in eGOS by at least 2 levels from 3 to 6 months (all ages, late infusion >12 hours (FIG. 5G)): 15
increase in eGOS levels from 3 to 6 months (all ages, ≤12 hours (FIG. 5A)): up to 4 levels
increase in proportion of patients with an eGOS increase by at least 1 level compared to Placebo: significance (all ages, ≤12 hours (FIGS. 5A-D)): significant
less patients with a decrease in eGOS over time vs placebo: significance (all patients, all times to infusion): not (statistically) significant
increase in eGOS levels from 3 to 6 months (all patients, all times to infusion (FIG. 4A)): up to 4 levels
number of patients with increase in eGOS by at least 2 levels from 3 to 6 months (all patients, all times to infusion (FIG. 4C)): 24
more patients with higher increase in eGOS over time vs placebo: significance (all patients, all times to infusion (FIG. 4D)): not (statistically) significant
overall eGOS-I rating at 6 months, Ronopterin vs placebo (primary efficacy endpoint) (all patients, ordinal logistic regression): No difference
increase in eGOS levels from 3 to 6 months (female patients, >12 hours (FIG. 14E)): up to 2 levels
number of patients with increase in eGOS by at least 2 levels from 3 to 6 months (female patients, >12 hours (FIG. 14G)): 2
increase in eGOS levels from 3 to 6 months (female patients, all times to infusion (FIG. 13A)): up to 2 levels
number of patients with increase in eGOS by at least 2 levels from 3 to 6 months (female patients, all times to infusion (FIG. 13C)): 2
less female patients with higher increase in eGOS over time vs placebo: significance (female patients, all times to infusion (FIG. 13D)): not (statistically) significant
increase in proportion of patients with Good Recovery (eGOS 7 and 8) from 3 to 6 months, compared to Placebo (female patients, early infusion ≤12 hours (FIG. 18)): exceeding the proportion in Placebo-treated patients
increase in proportion of patients with Good Recovery (eGOS 7 and 8) from 3 to 6 months, compared to Placebo (female patients, late infusion >12 hours (FIG. 18)): exceeding the proportion in Placebo-treated patients
increase in eGOS levels from 3 to 6 months (female patients, ≤12 hours (FIG. 14A)): up to 2 levels
number of patients with increase in eGOS by at least 2 levels from 3 to 6 months (female patients, ≤12 hours (FIG. 14C)): 0
Good Recovery at 3 months vs placebo [1]: higher Good Recovery at 3 months
eGOS responders vs placebo [1]: less female eGOS responders
increase in eGOS levels from 3 to 6 months (male patients, >12 hours (FIG. 12E)): up to 4 levels
number of patients with increase in eGOS by at least 2 levels from 3 to 6 months (male patients, >12 hours (FIG. 12G)): 13
increase in eGOS levels from 3 to 6 months (male patients, all times to infusion (FIG. 11A)): up to 4 levels
number of patients with increase in eGOS by at least 2 levels from 3 to 6 months (male patients, all times to infusion (FIG. 11C)): 22
more patients with higher increase in eGOS over time vs placebo: significance (male patients, all times to infusion (FIG. 11D)): not (statistically) significant
patients with a decrease in eGOS over time vs placebo (male patients, all times to infusion, p=0.04): significantly less
increase in proportion of patients with Good Recovery (eGOS 7 and 8) from 3 to 6 months, compared to Placebo (male patients, early infusion ≤12 hours (FIG. 17)): exceeding the proportion in Placebo-treated patients
increase in proportion of patients with Good Recovery (eGOS 7 and 8) from 3 to 6 months, compared to Placebo (male patients, late infusion >12 hours (FIG. 17)): less pronounced compared to Placebo-treated patients
increase in eGOS levels from 3 to 6 months (male patients, ≤12 hours (FIG. 12A)): up to 4 levels
number of patients with increase in eGOS by at least 2 levels from 3 to 6 months (male patients, ≤12 hours (FIG. 12C)): 9
increase in proportion of patients with an eGOS increase by at least 1 level compared to Placebo: significance (male patients, ≤12 hours (FIGS. 12A-D)): significant
median eGOS at 6 months (time to infusion >12 hours): 5
proportion of patients with Good Recovery (eGOS 7 and 8) at 6 months (time to infusion >12 hours): 25%
increase of proportion of patients with a Good Recovery at 6 months compared to the Placebo group (time to infusion ≤12 hours): 61%
median eGOS at 6 months (time to infusion ≤12 hours): 6
proportion of patients with Good Recovery (eGOS 7 and 8) at 6 months (time to infusion ≤12 hours): 37%
NNT for Good Recovery (eGOS 7 and 8) at 6 months (time to infusion ≤12 hours, vs placebo): 8
